Data reported in patent US9879008B2, “2,3,4,6-tetra-substituted benzene-1,5-diamine derivatives, preparation method therefor and medicinal use thereof” (SHANGHAI HAIYAN PHARMACEUTICAL TECHNOLOGY CO., LTD., priority 2014, dated 2018).

Assays:
H1975 cells = test: ELISA assay for cell activity of EGFR T790M inhibitor, H1975 cells; settings: for Selective inhibitory activities against cell [IC50(A431 cell)/IC50(H1975 cell)]: ELISA, ratio of cell IC50 values; for IC50: Homo sapiens, NCI-H1975, 1 h, read-out: H1975 cell (IC50/nM)
H1975 cell = test: MTT cytostatic activity, H1975 cell; type: cell-based; settings: MTT; for IC50: Homo sapiens, NCI-H1975, 72 h, read-out: H1975 cell (IC50/nM); for Selective inhibitory activity against cells [IC50(A431 cell)/IC50(H1975 cell)]: ratio of cell IC50 values;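 on all read-outs here: cells in 96-well plates exposed to compound for 72 h, then given MTT for a further 4 h at 37 °C under 5% CO2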
wild-type EGFR kinase = target: T1, wild-type EGFR kinase (Homo sapiens, UniProt P00533); test: z-lyte inhibition test against wild-type EGFR kinase; type: biochemical; settings: 10 μM ATP, read-out: EGFR WT (IC50/nM);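 further: reaction volume 10 µL holding 0.8 ng/µL enzyme and 2 µM Tyr04 substrate, with DMSO at 2% once compounds are present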
T1 construct: purchased Invitrogen PV3872

NIH3T3 cell = test: MTT cytotoxicity against NIH3T3 cells; type: cell-based; settings: Mus musculus, NIH3T3; cytotoxicity, MTT, 72 h; read-out: MTT assay against NIH3T3 cell (IC50/nM)
A431 cell = test: MTT cytostatic activity, A431 cell; type: cell-based; settings: Homo sapiens, A-431; MTT, 72 h; read-out: A431 cell (IC50/nM)
A431 cells = test: ELISA assay for cell activity, EGF-treated A431 cells; type: cell-based; settings: Homo sapiens, A-431, compound 1 h, then EGF 45 min;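 further: Serum-starved A431 cells, ELISA on lysates read as OD450 minus OD570, inhibition scaled between EGF-stimulated wells (0%) and unstimulated cell control (100%), DMSO 0.5% final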

T1 sequence (P00533 25-1210): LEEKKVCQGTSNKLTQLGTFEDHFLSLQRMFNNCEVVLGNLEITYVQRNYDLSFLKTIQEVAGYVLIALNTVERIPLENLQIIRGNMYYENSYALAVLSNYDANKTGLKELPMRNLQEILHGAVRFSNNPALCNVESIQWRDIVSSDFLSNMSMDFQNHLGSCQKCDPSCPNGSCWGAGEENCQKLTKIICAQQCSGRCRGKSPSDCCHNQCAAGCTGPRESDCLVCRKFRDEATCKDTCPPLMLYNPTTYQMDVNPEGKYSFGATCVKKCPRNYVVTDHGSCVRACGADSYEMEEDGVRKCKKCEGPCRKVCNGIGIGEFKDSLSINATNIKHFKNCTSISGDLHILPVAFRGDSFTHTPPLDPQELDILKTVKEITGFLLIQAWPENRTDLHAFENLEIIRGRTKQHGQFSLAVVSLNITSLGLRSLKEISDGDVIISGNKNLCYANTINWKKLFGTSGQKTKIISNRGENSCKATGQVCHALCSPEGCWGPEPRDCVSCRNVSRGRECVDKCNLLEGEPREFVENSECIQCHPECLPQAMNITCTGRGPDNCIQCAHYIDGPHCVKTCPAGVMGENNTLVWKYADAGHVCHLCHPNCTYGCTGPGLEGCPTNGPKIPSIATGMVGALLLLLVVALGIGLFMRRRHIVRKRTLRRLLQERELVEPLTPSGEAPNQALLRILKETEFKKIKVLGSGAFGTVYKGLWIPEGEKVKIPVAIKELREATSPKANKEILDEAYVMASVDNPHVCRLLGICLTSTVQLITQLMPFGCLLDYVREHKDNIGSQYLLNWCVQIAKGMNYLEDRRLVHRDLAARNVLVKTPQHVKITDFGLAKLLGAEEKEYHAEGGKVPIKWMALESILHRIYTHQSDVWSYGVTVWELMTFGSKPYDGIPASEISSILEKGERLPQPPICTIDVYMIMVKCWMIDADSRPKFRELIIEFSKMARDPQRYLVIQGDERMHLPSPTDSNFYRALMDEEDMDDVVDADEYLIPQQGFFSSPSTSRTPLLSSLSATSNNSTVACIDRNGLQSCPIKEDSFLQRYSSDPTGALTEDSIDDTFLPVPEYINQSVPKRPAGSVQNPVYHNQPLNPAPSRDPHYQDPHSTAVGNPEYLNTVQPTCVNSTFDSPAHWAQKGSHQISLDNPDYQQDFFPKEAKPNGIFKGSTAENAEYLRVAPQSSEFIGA

SMILES | Selective inhibitory activities against cell [IC50(A431 cell)/IC50(H1975 cell)] (H1975 cells) | IC50 (H1975 cells) [nM] | IC50 (H1975 cell) [nM] | Selective inhibitory activity against cells [IC50(A431 cell)/IC50(H1975 cell)] (H1975 cell) | IC50 (wild-type EGFR kinase) [nM] | IC50 (A431 cell) [nM] | IC50 (A431 cells) [nM] | IC50 (NIH3T3 cell) [nM]
C=CC(=O)Nc1cc(Nc2nccc(OC3CN(c4cnc5c(ccn5C)c4)C3)n2)c(OC)cc1N1CCC(N(C)C)CC1 [Compound J-18] | 4.3 | 256 | 184 | 16.1 | 30 | 2960 | 1100 | 
C=CC(=O)Nc1cc(Nc2ncc(Cl)c(OC3CN(C(C)=O)C3)n2)c(OC)cc1N1CCC(N(C)C)CC1 [Compound J-27] | 85 | 30 | 57 | 53.6 | 114 | 3050 | 2550 | 9830
C=CC(=O)Nc1cc(Nc2ncc(F)c(OC3CN(C(C)=O)C3)n2)c(OC)cc1N1CCC(N(C)C)CC1 [Compound J-30] | 17 | 113 | 121 | 50 | 95 | 6010 | 1910 | > 10000
C=CC(=O)Nc1cc(Nc2ncc(C(F)(F)F)c(OC3CN(S(C)(=O)=O)C3)n2)c(OC)cc1N1CCC(N(C)C)CC1 [Compound J-31] | 84 | 5 | 4 | 429 | 27 | 1720 | 419 | > 3000
C=CC(=O)Nc1cc(Nc2ncc(Cl)c(OC3CCCN(C(C)=O)CC3)n2)c(OC)cc1N1CCC(N(C)C)CC1 (stereo not shown) [Compound J-35] | 57.2 | 52 | 35 | 82.8 | 80 | 2900 | 2970 | > 10000
C=CC(=O)Nc1cc(Nc2ncc(Cl)c(OC3CCCN(S(C)(=O)=O)CC3)n2)c(OC)cc1N1CCC(N(C)C)CC1 (stereo not shown) [Compound J-37] | 26 | 36 | 27 | 79.4 | 22 | 2140 | 919 | > 10000
C=CC(=O)Nc1cc(Nc2ncc(Cl)c(OC3CCN(C(C)=O)CC3)n2)c(OC)cc1N1CCC(N(C)C)CC1 [Compound J-38] | 60 | 75 | 66 | 71 | 170 | 4670 | 4490 | > 10000

More lines, main results first:

Selective inhibitory activities against cell [IC50(A431 cell)/IC50(H1975 cell)] (H1975 cells) | IC50 (H1975 cells) [nM] | IC50 (H1975 cell) [nM] | Selective inhibitory activity against cells [IC50(A431 cell)/IC50(H1975 cell)] (H1975 cell) | IC50 (wild-type EGFR kinase) [nM] | IC50 (A431 cell) [nM] | IC50 (A431 cells) [nM] | SMILES | IC50 (NIH3T3 cell) [nM]
29.5 | 13 | 22 | 52 | 20 | 1140 | 383 | C=CC(=O)Nc1cc(Nc2ncc(Cl)c(OC3CCCN(S(C)(=O)=O)CC3)n2)c(OC)cc1N(C)CCN(C)C (stereo not shown) [Compound J-1, N-(5-(5-chloro-4-(1-(methylsulfonyl)azacycloheptane-4-oxy)pyrimidine-2-amino)-2-((2-(dimethylamino)ethyl)(methyl)amino)-4-methoxylphenyl)acrylamide] | > 10000
3.3 | 70 | 66 | 15 |  | 989 | 234 | C=CC(=O)Nc1cc(Nc2nccc(OC3CN(S(=O)(=O)c4ccccc4)C3)n2)c(OC)cc1N(C)CCN(C)C [Compound J-7, N-(2-((2-(dimethylamino)ethyl)(methyl)amino)-4-methoxy-5-(4-(1-(phenylsulfonyl)azetidine-3-oxy)pyrimidine-2-amino)phenyl)acrylamide] | > 10000
10 | 38 | 14 | 113 | 12 | 1580 | 379 | C=CC(=O)Nc1cc(Nc2ncc(Cl)c(OC3CN(S(C)(=O)=O)C3)n2)c(OC)cc1N(C)CCN(C)C [Compound J-11, N-(5-(5-chloro-4-(1-(methylsulfonyl)azetidine-3-oxy)pyrimidine-2amino)-2-((2-(dimethylamino)ethyl)(methyl)amino)-4-methoxyphenyl)acrylamide] | > 10000
1.2 | 129 | 121 | 15.5 | 8 | 1880 | 155 | C=CC(=O)Nc1cc(Nc2nccc(OC3CN(c4cccnc4)C3)n2)c(OC)cc1N(C)CCN(C)C [Compound J-17] | > 10000
32.5 | 20 | 11 | 286.3 | 49 | 3150 | 649 | C=CC(=O)Nc1cc(Nc2ncc(Cl)c(OC3CN(C(C)=O)C3)n2)c(OC)cc1N(C)CCN(C)C [Compound J-28] | > 10000
7 | 23 | 17 | 64.5 | 6 | 1100 | 156 | C=CC(=O)Nc1cc(Nc2ncc(F)c(OC3CN(S(C)(=O)=O)C3)n2)c(OC)cc1N1CCC(N(C)C)CC1 [Compound J-29] | > 10000
11 | 123 | 72 | 60 | 39 | 4300 | 1320 | C=CC(=O)Nc1cc(Nc2ncc(Cl)c(OC3CCN(S(C)(=O)=O)CC3)n2)c(OC)cc1N1CCC(N(C)C)CC1 [Compound J-39] | > 10000
7.1 | 95 | 50 | 59 | 47 | 2950 | 670 | C=CC(=O)Nc1cc(Nc2ncc(Cl)c(O[C@@H]3CCCN(S(C)(=O)=O)C3)n2)c(OC)cc1N(C)CCN(C)C [Compound J-40, (R)—N-(5-(5-chloro-4-(1-(methylsulfonyl)piperidine-3-oxy)pyrimidine-2-amino)-2-((2-(dimethylamino)ethyl)(methyl)amino)-4-methoxyphenyl)acrylamide] | > 10000
1.3 | 1340 | 359 | 14.1 |  | 5060 | 1760 | C=CC(=O)Nc1cc(Nc2nccc(C3CN(c4cnc5c(cnn5C)c4)C3)n2)c(OC)cc1N(C)CCN(C)C [compound 2, reference compound] | 
